Like-named read-outs stand apart in the source and are kept apart here. Marks after values point to notes of the source that are not given here.
Columns and labels:
[1] = test system: HIV (LAV Strain); test: Antiviral activity in HIV-infected A301 (Alex) cells, reverse transcriptase level readout; format: cell-based; details: Human immunodeficiency virus 1
Description: This procedure is a modification of a procedure initially described by Chen et al., Biochemical Pharmacology. 36 (24), 4361-4362 (1987).
(§1) A301 (Alex) cells are pre-infected with a constant amount of HIV (LAV Strain) for three hours at 37° C. Test compounds and AZT (control) are added to the infected cells in two, three or five-fold dilutions, out four places for screening and eight places for confirmation. Unless mentioned the highest concentration is […]. The test plates are incubated in C02 at 37` C for up to twelve days (incubation time depends on virus pool titer) with a partial medium/sample change midpoint through the incubation period. Uninfected A301 cells with sample dilutions, but without virus, are used to evaluate cytotoxicity.
Reverse transcriptase levels are assayed at the end of the incubation period as follows, to determine if antiviral activity is present.
[…] of medium from the HIV infected Alex cells is added to 10 mL of 3.2% Triton X-100. This solution is incubated for 30 minutes at 37° C, then 25 mL of 4X assay mix is added to it. The 4X assay mix contains [^3H]TTP, poly(A).oligo(dT), potassium chloride, magnesium chloride, dithiothreitol, and Tris-HCI buffer, pH8.0. […] The radioactivity remaining on the 3MM paper is quantitated by scintillation counter, and corresponds to reverse transcriptase level.

[2] = test system: Uninfected A301 cells; test: Cytotoxicity in uninfected A301 (Alex) cells; format: cell-based
Description: as §1

[3] = Cytotoxicity in uninfected A301 (Alex) cells; format: cell-based; details: human, read-out: Cell Toxicity Partial
Description: as §1

[4] = background statement on prior art; cited from earlier work
[5] = test system: HIV; details: background statement on prior art; cited from earlier work
[6] = test system: Erythroid Colonies, CFU-E; test: CFU-E assay (late erythroid precursors), human hematopoietic cell toxicity; format: cell-based
From the text: (§2) This procedure is a modification of procedures initially described by Diainiak, et al., British Journal of Haematology, 69, 229-304 (1988), or as described by Sommadossi, et al., Agents and Chemotherapy, 31-(3), 452-454 (1987).
(§3) The effect of 4 -azidothymidine and AZT on the formation of erythroid and GM colonies from precursors in human peripheral blood and bone marrow were compared; from which the inhibition of 4 -azidothymidine and AZT against human hematopoietic cells were compared.
In each experiment peripheral blood or bone marrow from a single donor was used. […]
MN were cultured at a concentration of 3 x 10^5 cells/ml. The culture medium consisted of Iscove's Modified Eagle Medium (Gibco) supplemented with 30% heat-inactiviated FCS (Hyclone), penicillin ([…]), streptomycin ([…]), 2-mercaptoethanol (1 x 10^-4, 1% deionized bovine serum albumin (BSA, Sigma), DEAE-Dextran 40 mg/ml (Pharmacia), 0.8% methylcellulose (4000 Centipose, Fisher), and erythropoietin 2 U/ml (Connaught Laboratories). Cells were plated in 96-well plates ([…]) and incubated at 37^*C with 5% C02 in air (100% humidity) for 7-14 days. CFU-E colonies were counted on Days 7-8. Clusters of 8 or more hemoglobinized cells were considered as a colony. BFU-E colonies were counted on Day 14. Aggregates of 50 or more cells were counted as a colony. […]

[7] = test system: Granulocyte-Macrophage Colonies (CFU-GM); test: CFU-GM assay (myeloid precursors), human hematopoietic cell toxicity; format: cell-based
From the text: as §2, §3
In each experiment peripheral blood or bone marrow from a single donor was used. Human peripheral blood mononuclear cells (PBL) were separated from heparinized blood of drug-free donors by density-gradient centrifugation in Ficoll (Pharmacia). Whole blood diluted 1:1 with Hanks' balanced salt solution (HBSS, Gibco) was layered on the top of Ficoll and centrifuged at 400 x g for 30 min. Cells were collected from the interphase and after washing, the concentration was adjusted to 2x10^6 cells/mL in RPMI-1640 medium with 25 mM Hepes buffer (Gibco). Monocytes were removed by adherence to plastic in large Petri dishes (150x15mm), adding 20 ml of the cell suspension/dish, and incubating for 1 hour at 37° C. Nonadherent mononuclear cells (MN) were removed by vigorous washing of the Petri dish with warm (37°C) HBSS.
Bone marrow aspirates from healthy donors were collected in heparizined syringes. The whole mononuclear cell fraction was separated by Ficoll-Paque density-gradient centrifugation (400 x g for 30 min). Cells collected from the interphase were washed 3 times in HBSS and resuspended in culture medium as described below for CFU-GM assay.
MN (1.5x10^6 cells/ml) and BM (1.x10^5 cells/ml) were cultured in complete medium as follows: Dulbecco's Modified Eagle Medium (DMEM, Gibco) supplemented with 20% heat-inactivated fetal calf serum (FCS, Hyclone), 2 mM L-glutamine, 5 x 10-^5 M 2-mercaptoethanol, penicillin (100 U/ml), streptomycin ([…]), and 0.3% bacto-agar (Difco). All supplements were from Gibco, unless otherwise specified. Cells were plated in 35x100 mm Lux Petri dishes (suspension dishes) in triplicate, and incubated at 37°C with 5% CO2 in air at 100% humidity. A supernatant from a T-cell line (GCT, Gibco), containing GM-Colony Stimlating Factor (GM-CSF), was used at a final concentration of 10% in complete medium. Tested compounds were added to the test dishes at concentrations of 10-^9 to 10-^4 M. Cells were incubated in air containing 5% CO2 (100% humidity) at 37°C for 14 days. Colonies were counted under a dissecting microscope. A CFU-GM colony was defined as a cluster of 50 or more cells consisting of granulocytes, monocyte-macrophages, or both.
All tests were performed in triplicate. The 50% inhibitory concentrations (ICso) for all types of colonies were determined using an RS 1 program on an IBM-PC.

[8] = test system: Friend leukemia virus complex (FLVC); format: in vivo, Balb/c mice; details: daily dose 120 mg/kg i.p. for 9 days
Description: This procedure is a modification of a procedure initially described by Jones et al., Journal of Virology, 62 (2), 511-51,8 (1988), or by modifications thereof.
Friend leukemia virus complex (FLVC) was used. This retrovirus complex consists of both helper and defective virus particles.
Six week old female Balb/c mice from Bantin and Kingman, each weighing on the average of 18 gm, received 0.2ml of a solution (comprised of virus diluted in PBS containing 0.002 M EDTA) administered at 20 FFU/mouse, intravenously. Treatments began 4 hours after infection and continued for 9 days. AZT and 4'-azidothymidine were administered at 60 mg/kg/dose twice daily on Days 0, 4, and 5; and on Days 1-3 and 6-8 were administered 3 times daily at 40 mg/kg/dose. 2 3 -Dideoxycytidine was administered at 120 mg/kg/dose twice daily on days 0, 4, and 5; and on days 1-3 and 6-8 was administered 3 times daily at 80 mg/kg/dose. All treatments were given intraperitoneally, 0.5mi/dose. On day 9 after infection the spleens were removed, stained and fixed in Bouin's solution for 2 hours and then weighed. Foci were counted on spleens. A standard t-test was run to compare difference in spleen weights and difference in number of foci-forming units (FFU's) per spleen between groups.

Structure (SMILES): Cc1cn([C@H]2C[C@H](N=[N+]=[N-])[C@@H](CO)O2)c(=O)[nH]c1=O [3'-azidothymidine, reference compound]
- EC50 [1]: 0.01 µM
- Cell Toxicity Complete [2]: 3300 µM
- MCC [3]: 825 µM

Structure (SMILES): [N-]=[N+]=N[C@]1(CO)O[C@@H](n2ccc(N)nc2=O)[C@H](O)[C@@H]1O [4 -azidocytidine]
- cytotoxicity [4]: cytotoxic
- anti-HIV activity [5]: devoid of anti-HIV activity

Structure (SMILES): Cc1cn([C@H]2C[C@H](O)[C@](CO)(N=[N+]=[N-])O2)c(=O)[nH]c1=O [4'-azidothymidine]
- IC50 ([6]; BM (1 experiment)): 27 µM
- IC50 ([7]; bone marrow, experiment 1, listed as 2, read-out: IC50 BM 1): 2.01 µM
- IC50 ([7]; bone marrow, experiment 2, listed as 2, read-out: IC50 BM 2): 0.9 µM
- IC50 ([7]; peripheral blood mononuclear cells, five separate experiments, listed as 2, read-out: IC50 PBM Mean ±SE): 4.83 ± 1.42 µM
- EC50 ([1]; A301 (Alex) cells pre-infected with HIV (LAV Strain), reverse transcriptase levels at end of incubation, read-out: EC50): 0.01 µM
- Inhibition of Splenomegaly [8]: 75%
- FFU/Spleen ([8]; Day 9): ≥26 FFU/Spleen
- Spleen Weight ([8]; weighed on Day 9 after infection): 0.190^d gm
- Cell Toxicity Complete [2]: 200 µM
- MCC [3]: 8 µM

Structure (SMILES): Cc1cn([C@H]2C[C@H](O)[C@](CO)(N=[N+]=[N-])O2)c(=O)[nH]c1=O [Compound 1]
- IC50 ([6]; PBM (3 experiments)): > 100 µM
- IC50 ([7]; bone marrow, experiment 1, read-out: IC50 BM 1): 21.1 µM
- IC50 ([7]; bone marrow, experiment 2, read-out: IC50 BM 2): 13.6 µM
- IC50 ([7]; peripheral blood mononuclear cells, five separate experiments, read-out: IC50 PBM Mean ±SE): 20.7 ± 1.73 µM

Reference: patent EP0371366A1, “Antiviral agents” (priority 1988, dated 1990)
